Test results reported in US20110039762A1, “TARGETED ANTIMICROBIAL MOIETIES” (C3 JIAN, INC., priority 2009, published 2011).
Entries after “also recorded” stand apart in the source; their conditions may differ.

How the values were obtained:
B. subtilis = test: Kill or inhibit growth/proliferation; morphology, biofilm and growth disruption (Tables 5, 6); assay type: cell-based, Bacillus subtilis; parameters: key: A: Peptide aggregates; B: Less hyphal formation; Clumps; Diffuse clumps and small polyps; F: Diffuse growth; H: Thin; I: Growth inhibition; Microcolony formation; Rippled; Small polyps; Thick; W: Halo formation on top, microlonies on bottom; further: test concentration or dose not given here
C. jeikeium = test: as above; assay type: cell-based, Corynebacterium jeikeium; parameters: key: A: Peptide aggregates; B: Less hyphal formation; Clumps; Diffuse clumps and small polyps; F: Diffuse growth; H: Thin; I: Growth inhibition; Microcolony formation; Rippled; Small polyps; Thick; W: Halo formation on top, microlonies on bottom
E. faecalis = test: as above; assay type: cell-based, Enterococcus faecalis; parameters: key: A: Peptide aggregates; B: Less hyphal formation; Clumps; Diffuse clumps and small polyps; F: Diffuse growth; H: Thin; I: Growth inhibition; Microcolony formation; Rippled; Small polyps; Thick; W: Halo formation on top, microlonies on bottom; further: test concentration or dose not given here
M. luteus = test: as above; assay type: cell-based, Micrococcus luteus; parameters: key: A: Peptide aggregates; B: Less hyphal formation; Clumps; Diffuse clumps and small polyps; F: Diffuse growth; H: Thin; I: Growth inhibition; Microcolony formation; Rippled; Small polyps; Thick; W: Halo formation on top, microlonies on bottom; further: test concentration or dose not given here
MRSA = test: as above; assay type: cell-based, Methicillin-resistant Staphylococcus aureus; parameters: key: A: Peptide aggregates; B: Less hyphal formation; Clumps; Diffuse clumps and small polyps; F: Diffuse growth; H: Thin; I: Growth inhibition; Microcolony formation; Rippled; Small polyps; Thick; W: Halo formation on top, microlonies on bottom
S. epidermidis = test: as above; assay type: cell-based, Staphylococcus epidermidis; parameters: key: A: Peptide aggregates; B: Less hyphal formation; Clumps; Diffuse clumps and small polyps; F: Diffuse growth; H: Thin; I: Growth inhibition; Microcolony formation; Rippled; Small polyps; Thick; W: Halo formation on top, microlonies on bottom
S. pneumoniae = test: as above; assay type: cell-based, Streptococcus pneumoniae; parameters: key: A: Peptide aggregates; B: Less hyphal formation; Clumps; Diffuse clumps and small polyps; F: Diffuse growth; H: Thin; I: Growth inhibition; Microcolony formation; Rippled; Small polyps; Thick; W: Halo formation on top, microlonies on bottom
C. jejuni = test: as above; assay type: cell-based, Campylobacter jejuni; parameters: key: A: Peptide aggregates; B: Less hyphal formation; Clumps; Diffuse clumps and small polyps; F: Diffuse growth; H: Thin; I: Growth inhibition; Microcolony formation; Rippled; Small polyps; Thick; W: Halo formation on top, microlonies on bottom; further: test concentration or dose not given here
microorganisms = test: Peptides having multiple activities (targeting/binding, antimicrobial, growth or phenotype altering)
Source text: In certain embodiments, peptides described herein can have multiple activities. Thus for example, a peptide can have both binding/targeting activity and antimicrobial activity. Such peptides can be used, e.g., in a chimeric construct, for any or all of these properties. Thus, for example, a peptide designated “B” in Table 8 can be used as a targeting peptide. If it is also designated G or M it can also be used for antimicrobial activity.

C. albicans = test: Kill or inhibit growth/proliferation; morphology, biofilm and growth disruption (Tables 5, 6); assay type: cell-based, Candida albicans; parameters: key: A: Peptide aggregates; B: Less hyphal formation; Clumps; Diffuse clumps and small polyps; F: Diffuse growth; H: Thin; I: Growth inhibition; Microcolony formation; Rippled; Small polyps; Thick; W: Halo formation on top, microlonies on bottom; further: test concentration or dose not given here
[1] = test system: microorganisms (e.g., bacteria, yeasts, fungi); test: Targeting peptide binding to target microorganisms (Table 3); settings: preferably 1x PBS; for Target(s) (microorganisms bound by the targeting peptide): peptide binding in aqueous buffers varied by peptide solubility; for Target(s): microorganism(s) the targeting peptide binds, peptide binding conducted in aqueous buffers varied by peptide solubility
Wherever Organism, effect (morphology, biofilm and growth disruption) is given: test concentration or dose not given here.
Wherever Organism, effect is given: test concentration or dose not given here.

Row | Substance | Organism, effect (B. subtilis) | Organism, effect (C. jeikeium) | Organism, effect (MRSA) | Organism, effect (S. pneumoniae) | Activities (microorganisms) | Organism, effect (C. albicans) | Target(s) (microorganisms bound by the targeting peptide) [1] | Organism, effect (morphology, biofilm and growth disruption) (S. pneumoniae) | other results
1 | PF-556: peptide having multiple activities (chain 1 SLQIRMNTLTAAKASIEAA; chain 2 SLQIRMNTLTAAKASIEAA; Peptide with targeting and/or antimicrobial activity) | B. subtilis (C) | C. jeikeium (D) | MRSA (M) | S. pneumoniae (D) | G B | – | – | – | Organism, effect (E. faecalis): E. faecalis (A); Organism, effect (M. luteus): M. luteus (A); Organism, effect (S. epidermidis): S. epidermidis (A); Organism, effect (C. jejuni): C. jejuni (R)
2 | PF-617: peptide having multiple activities (PMNAAEPE; Peptide with targeting and/or antimicrobial activity) | – | – | – | S. pneumoniae (I) | G B | C. albicans (H) | P. aeruginosa; also recorded: C. albicans | – | Organism, effect (E. faecalis): E. faecalis (H)
3 | PF-566: peptide having multiple activities (chain 1 EAQQVTQQLGADFNAITTPTATKV; chain 2 EAQQVTQQLGADFNAITTPTATKV; Peptide with targeting and/or antimicrobial activity) | B. subtilis (C) | C. jeikeium (C) | MRSA (M) | S. pneumoniae (D) | G B | – | – | – | Organism, effect (M. luteus): M. luteus (D); Organism, effect (C. jejuni): C. jejuni (D); Target(s) [1]: P. mirabilis; also recorded: S. pneumoniae
4 | PF-697 (chain 1 RADARAK; chain 2 RADARAK; Peptide with targeting and/or antimicrobial activity) | – | – | – | – | – | – | Mycobacteria spp | S. pneumoniae (H) | Organism, effect (morphology, biofilm and growth disruption) (C. albicans): C. albicans (H)
5 | PF-639: peptide having multiple activities (chain 1 QATQIKSWIDRLLVSED; chain 2 QATQIKSWIDRLLVSED; Peptide with targeting and/or antimicrobial activity) | – | – | MRSA (R) | S. pneumoniae (I) | G B | C. albicans (B) | S. pneumoniae; also recorded: C. jeikeium | – | Organism, effect (E. faecalis): E. faecalis (H)
6 | PF-548: peptide having multiple activities (chain 1 ARPIADLIHFNSTTVTASGDVYYGPG; chain 2 ARPIADLIHFNSTTVTASGDVYYGPG; Peptide with targeting and/or antimicrobial activity) | B. subtilis (C) | C. jeikeium (R) | MRSA (M) | S. pneumoniae (D) | G B | – | – | – | Organism, effect (M. luteus): M. luteus (A); Organism, effect (S. epidermidis): S. epidermidis (M); Organism, effect (C. jejuni): C. jejuni (D)
7 | PF-645 (chain 1 SNSVQQG; chain 2 SNSVQQG; Peptide with targeting and/or antimicrobial activity) | – | – | – | S. pneumoniae (I) | – | C. albicans (B) | Mycobacteria spp | – | –
8 | PF-684 (chain 1 RKLSLASGFALWRRSLV; chain 2 RKLSLASGFALWRRSLV; Peptide with targeting and/or antimicrobial activity) | – | – | – | – | – | – | Mycobacteria spp | S. pneumoniae (C) | Organism, effect (morphology, biofilm and growth disruption) (E. faecalis): E. faecalis (A); Organism, effect (morphology, biofilm and growth disruption) (C. albicans): C. albicans (B)
9 | PF-553: peptide having multiple activities (chain 1 LTIVGNALQQKNQKLLLNQKKITSLG; chain 2 LTIVGNALQQKNQKLLLNQKKITSLG; Peptide with targeting and/or antimicrobial activity) | B. subtilis (D) | C. jeikeium (R) | MRSA (M) | S. pneumoniae (R) | G B | – | – | – | Target(s) [1]: S. epidermidis and E. coli and P. aeruginosa and C. albicans and MRSA and S. pneumoniae and C. jeikeium
10 | PF-627: peptide having multiple activities (INDLLSYFTLHEK; Peptide with targeting and/or antimicrobial activity) | – | – | MRSA (R) | S. pneumoniae (I) | G B | C. albicans (B) | S. epidermidis and P. aeruginosa and MRSA and S. pneumoniae and E. faecalis and C. jeikeium | – | Organism, effect (E. faecalis): E. faecalis (H); Organism, effect (S. epidermidis): S. epidermidis (H)
11 | PF-640: peptide having multiple activities (chain 1 MGDINRNF; chain 2 MGDINRNF; Peptide with targeting and/or antimicrobial activity) | – | – | – | S. pneumoniae (I) | G B | C. albicans (B) | C. albicans | – | Organism, effect (E. faecalis): E. faecalis (H)
12 | PF-654 (chain 1 LSGRLAGRR; chain 2 LSGRLAGRR; Peptide with targeting and/or antimicrobial activity) | – | – | – | – | – | – | Mycobacteria spp | S. pneumoniae (A) | Organism, effect (morphology, biofilm and growth disruption) (MRSA): MRSA (R); Organism, effect (morphology, biofilm and growth disruption) (C. albicans): C. albicans (B)
13 | PF-646 (chain 1 APASPGRRPG; chain 2 APASPGRRPG; Peptide with targeting and/or antimicrobial activity) | – | – | – | – | – | C. albicans (B) | Mycobacteria spp | S. pneumoniae (H) | –
14 | PF-145: peptide having multiple activities (GIVLTGRAGLVSGACSMALGVGLG; Peptide with targeting and/or antimicrobial activity) | B. subtilis (C) | C. jeikeium (R) | MRSA (M) | S. pneumoniae (R) | G B | – | – | – | Organism, effect (M. luteus): M. luteus (A); Organism, effect (S. epidermidis): S. epidermidis (D); Organism, effect (C. jejuni): C. jejuni (R)
15 | PF-647 (chain 1 GTFLGQKCAAATAS; chain 2 GTFLGQKCAAATAS; Peptide with targeting and/or antimicrobial activity) | – | – | – | – | – | – | Mycobacteria spp | S. pneumoniae (R) | Organism, effect (morphology, biofilm and growth disruption) (C. albicans): C. albicans (B)
16 | PF-564: peptide having multiple activities (chain 1 TIILNDQINSLQERLNKLNAETDRR; chain 2 TIILNDQINSLQERLNKLNAETDRR; Peptide with targeting and/or antimicrobial activity) | B. subtilis (D) | C. jeikeium (R) | MRSA (C) | – | G B | – | – | – | Organism, effect (C. jejuni): C. jejuni (R); Target(s) [1]: S. epidermidis; also recorded: C. albicans; also recorded: S. pneumoniae; also recorded: C. jeikeium
17 | PF-698 (chain 1 SSGRAGVKCRRPTGR; chain 2 SSGRAGVKCRRPTGR; Peptide with targeting and/or antimicrobial activity) | – | – | – | – | – | – | Mycobacteria spp | S. pneumoniae (A) | Organism, effect (morphology, biofilm and growth disruption) (E. faecalis): E. faecalis (A); Organism, effect (morphology, biofilm and growth disruption) (C. albicans): C. albicans (H)
